In patent US9512128B2 (BAYER CROPSCIENCE AG, priority 2012, dated 2016):
Like-named read-outs stand apart in the source and are kept apart here.

Key:
[1] = system: larvae of the mustard beetle (Phaedon cochleariae); experiment: Phaedon cochleariae spray test (PHAECO); type: in vivo; conditions: application rate 500 g/ha, after 7 days, Chinese cabbage leaf discs
Description: 2. Phaedon cochleariae Spray Test (PHAECO)
• Solvents: 78.0 parts by weight of acetone • 1.5 part by weight of dimethylformamide • Emulsifier: 0.5 part by weight of alkylaryl polyglycol ether
To produce a suitable preparation of active compound, 1 part by weight of active compound is mixed with the stated amounts of solvents and emulsifier, and the concentrate is diluted with emulsifier-containing water to the desired concentration.
After 7 days, the efficacy in % is determined. 100% means that all of the beetle larvae have been killed; 0% means that none of the beetle larvae have been killed.

[2] = system: greenhouse red spider mite (Tetranychus urticae); experiment: Tetranychus urticae spray test, OP-resistant (TETRUR); type: in vivo; conditions: after 6 days, bean leaf discs
In short: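 Bean leaf discs infested with all stages of an OP-resistant strain are sprayed with compound in acetone/DMF with alkylaryl polyglycol ether emulsifier, diluted in water; % mortality after 6 days (100% = all mites killed).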

[3] = log P by HPLC on reversed-phase columns (C 18), EEC directive 79/831 Annex V.A8; type: physicochemical; conditions: for chromatographic logP: reversed-phase C18 HPLC column; for logP[a]: method [a]; for logP[b]: method [b]
In short: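 Measured by reversed-phase C18 HPLC (LC-MS) with a linear 10→95% acetonitrile gradient. Acidic: pH 2.7, 0.1% formic acid. Neutral: pH 7.8, 0.001 M ammonium bicarbonate.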

[4] = system: southern root-knot nematode (Meloidogyne incognita); experiment: Meloidogyne incognita test (MELGIN); type: in vivo; conditions: application rate 20 ppm, after 14 days, lettuce
Description: 5. Meloidogyne incognita Test (MELGIN) • Solvent: 125.0 parts by weight of acetone To prepare a suitable active compound preparation, 1 part by weight of active compound is mixed with the stated amount of solvent and the concentrate is diluted with water to the desired concentration. Vessels are filled with sand, active compound solution, an egg/larvae suspension of the southern root-knot nematode (Meloidogyne incognita) and lettuce seeds. The lettuce seeds germinate and the plants develop. On the roots, galls are formed. After 14 days, the nematicidal effect in % is determined by the formation of galls. 100% means that no galls have been found; 0% means that the number of galls on the treated plants corresponds to the untreated control.

[5] = pH 2.7, acidic range, pH 2.7, 0.1% aqueous formic acid / acetonitrile, read-out: log P[a]
[6] = pH 2.7, method [a], read-out: logP[a]
[7] = pH 7.8, method [b], read-out: logP[b]
[8] = pH 7.8, neutral range, pH 7.8, 0.001 molar aqueous ammonium bicarbonate / acetonitrile, read-out: log P[b]

SMILES | efficacy in % (beetle larvae killed) [1] [%] | efficacy in % (spider mites killed) ([2]; application rate 500 g/ha) [%] | logP[a] [3] | logP[b] [3] | nematicidal effect in % (formation of galls) [4] [%] | further results
Cc1cc(F)c(-n2cnc3c(cnn3C)c2=O)cc1SCC(F)(F)F [Compound 1, 5-{2-Fluoro-4-methyl-5-[(2,2,2-trifluoroethyl)sulphanyl]phenyl}-1-methyl-1,5-dihydro-4H-pyrazolo[3,4-d]pyrimidin-4-one] | 100 | 90 | – | – | – | chromatographic logP [3, 5]: 2.66; chromatographic logP [3, 6]: 2.66; chromatographic logP [3, 7]: 2.65; chromatographic logP [3, 8]: 2.65
N#Cc1ccc(-n2cnc3sccc3c2=O)cc1[S+]([O-])CC(F)(F)F (stereo not shown) [Compound 88] | 100 | – | 2.07 | 2.00 | – | –
N#Cc1ccc(-n2cnc3sccc3c2=O)cc1[S+]([O-])CC(F)(F)F (stereo not shown) [Compound 95] | 100 | – | 1.89 | 1.87 | – | –
Cc1cc(F)c(-n2cnc3sccc3c2=O)cc1[S+]([O-])CC(F)(F)F (stereo not shown) [Compound 96] | 100 | 100 | 2.10 | 2.09 | 90 | –
N#Cc1ccc(-n2cnc3ccsc3c2=O)cc1[S+]([O-])CC(F)(F)F (stereo not shown) [Compound 105] | 100 | – | 1.79 | 1.75 | – | –
O=c1c2sccc2ncn1-c1ccc(Cl)c([S+]([O-])CC(F)(F)F)c1 (stereo not shown) [Compound 106] | 83 | – | 2.07 | 2.03 | – | –
Cc1cc(F)c(-n2cnc3ccsc3c2=O)cc1[S+]([O-])CC(F)(F)F (stereo not shown) [Compound 112] | 100 | – | 1.96 | 1.95 | 90 | efficacy in % (spider mites killed) ([2]; application rate 100 g/ha): 90%
Cc1cc(F)c(-n2nnc3c(cnn3C)c2=O)cc1[S+]([O-])CC(F)(F)F (stereo not shown) [Compound 120, 3-{2-Fluoro-4-methyl-5-[(2,2,2-trifluoroethyl)sulphinyl]phenyl}-7-methyl-3,7-dihydro-4H-pyrazolo[3,4-d][1,2,3]triazin-4-one] | 83 | 90 | – | – | – | chromatographic logP [3, 5]: 2.14; chromatographic logP [3, 6]: 2.14; chromatographic logP [3, 7]: 2.1; chromatographic logP [3, 8]: 2.1
Cc1cc(F)c(-n2nnc3cnn(C)c3c2=O)cc1[S+]([O-])CC(F)(F)F (stereo not shown) [Compound 136] | 83 | 100 | – | – | 90 | –
Cc1cc(F)c(-n2cnc3cnn(C(C)C)c3c2=O)cc1SCC(F)(F)F [Compound 161] | 83 | 100 | – | – | 100 | –
Cc1cc(F)c(-n2cnc3cnn(C(C)C)c3c2=O)cc1[S+]([O-])CC(F)(F)F (stereo not shown) [Compound 165] | 100 | 100 | – | – | 100 | –
Cc1cc(F)c(-n2nnc3c(C)nsc3c2=O)cc1[S+]([O-])CC(F)(F)F (stereo not shown) [Compound 183] | 100 | 90 | – | – | – | –
Cc1cc(F)c(-n2cnc3nsc(C(C)(C)C)c3c2=O)cc1SCC(F)(F)F [Compound 191] | 100 | 100 | – | – | – | –
CCc1nsc2ncn(-c3cc(SCC(F)(F)F)c(C)cc3F)c(=O)c12 [Compound 201] | 100 | 90 | – | – | – | –
Cc1cc(F)c(-n2cnc3snc(C(C)(C)C)c3c2=O)cc1[S+]([O-])CC(F)(F)F (stereo not shown) [Compound 208] | 83 | 100 | – | – | 100 | –
